Data as given in PubChem BioAssay AID2060893 (Molecular Pharmacology Branch, DTP, NCI, 2025).
pIC50: −log10 of the molar value.

System: K86415-001-R-J1-PDC complex spheroids, viability
Assay: Anticancer human tumor K86415-001-R-J1-PDC patient-derived lung adenocarcinoma cell line growth inhibition [RAS]
Settings: for pIC50: curve of first compound; for viability, T/C: stronger effect = lower value; active = viability on the fitted dose curve at most 10% of control; inactive = the rest
From the text: RAS pathway inhibitors in Combinations in Complex Spheroids
A high-throughput screen of multi-cell type tumor spheroids was designed to identify active combinations of RAS pathway inhibitors and targeted small molecules. Complex spheroids include a stromal component modeled by human endothelial cells (HUVEC) and fibroblasts modeled by human mesenchymal stem cells (MSCs). The concentration ranges selected for each drug and investigational agent were based upon clinically achievable concentrations if the clinical Cmax of the agent was known.
Compounds. The drugs and investigational agents: abemaciclib (NSC768073), cobimetinib (NSC768068), divarasib (GDC6063, NSC841802), docetaxel (NSC628503), GDC-1971 (RLY-1971, NSC841576), gemcitabine (NSC613327), inavolisib (NSC800729), ipatasertib (NSC767898), KB-0742 (NSC834161), MRTX-1133 (NSC836407), osimertinib (NSC779217), RMC-4630 (NSC839698), RMC-6236 (NSC851965), RMC-6291 (NSC852671), Ro-3306 (NSC812927), sapanisertib (NSC764658), SN-38 (NSC673596), staurosporine (NSC755774), SY5609 (NSC837396), and tovorafenib (DAY101, NSC766906), were obtained from the National Cancer Institute (NCI) Developmental Therapeutics Program Chemical Repository. The FDA-approved anticancer drug set is available from the NCI Developmental Therapeutics Program. […] The stock solutions were prepared in dimethyl sulfoxide (DMSO, Sigma-Aldrich, St. Louis, MO, cat. D2650) at 800-fold the tested concentration and stored at -70 degrees C prior to their use. All drugs and investigational agents were tested over a range starting from a high concentration at or near the clinical Cmax and decreasing in half-log increments. If the clinical Cmax for an agent had not been determined, the highest concentration tested was 10 microM.
Cell Culture. All cells were maintained in an incubator at 37 degrees C and 5% CO2 with 95% humidity. The PDC lines were cultured according to standard operating procedures established by the NCI PDMR. All PDCs were thawed and cultured in Matrigel-coated flasks prepared with a working solution of 1X Ham's F-12 nutrient mix, without supplementation (Invitrogen, Waltham, MA, cat. 11765054), 100 U/mL penicillin-streptomycin (Invitrogen, cat. 15140122), and 2.5% Matrigel (Corning Inc., Corning, NY, cat. 354248) for the first three passages. The 362531-283-R-J2-PDC and 782815-120-R-J1-PDC lines were cultured in 6C/Colon 1B media, which includes advanced DMEM/F-12 (Thermo Fisher Scientific, cat. 12634028), 10 mM HEPES (Thermo Fisher Scientific, cat. 15630080), 1X GlutaMAX supplement (Thermo Fisher Scientific, cat. 35050061), 0.1 mg/mL primocin (InvivoGen, San Diego, CA, cat. ant-pm-2), 10% defined fetal bovine serum, heat inactivated (HyClone Laboratories Inc., Logan, UT, cat. SH30070.03HI), 50% L-WRN conditioned media (ATCC, cat. CRL-3276), 1.25 mM N-Acetyl-L-cysteine (Sigma-Aldrich, cat. A9165), 10 mM nicotinamide (Sigma-Aldrich, cat. N0636), 1X B-27 supplement (Thermo Fisher Scientific, cat. 17504044), 1X N-2 supplement (Thermo Fisher Scientific, cat. 17502048), 50 ng/mL human EGF (Thermo Fisher Scientific, cat. PHG0311), and 10 microM Y-27632 dihydrochloride (Tocris Bioscience, cat. 1254). The K12877-001-R-J1-PDC line was cultured in 6I media, which includes all 6C/Colon 1B media plus 10 ng/mL human FGF-10 (PeproTech, cat. 100-26), 1 ng/mL human FGF-2 (PeproTech, cat. 100-18B), 1 µM prostaglandin E2 (Tocris Bioscience, cat. 2296), […] hydrocortisone (Sigma-Aldrich, cat. H4001), and […] bovine insulin (Sigma-Aldrich, cat. I6634). The K86415-001-R-J1-PDC line was cultured in 6D media, which includes all 6C/Colon 1B media components minus the L-WRN conditioned media. The 485176-168-R4-J1-PDC was cultured in PANC media, which includes all 6C/Colon 1B media plus 100 ng/mL human FGF-10 (PeproTech, cat. 100-26), 500 nM SB-431542 (Selleckchem, cat. S1067), and 10 nM gastrin (Tocris Bioscience, cat. 3006). […]

[1] = second compound 0.0316 µM, first compound 0.0316 µM
[2] = second compound 0.0316 µM, first compound 0.1 µM
[3] = second compound 0.1 µM, first compound 0.0316 µM
[4] = second compound 0.1 µM, first compound 0.1 µM
[5] = second compound 0.316 µM, first compound 0.0316 µM
[6] = second compound 0.316 µM, first compound 0.1 µM
[7] = second compound 1 µM, first compound 0.0316 µM
[8] = second compound 1 µM, first compound 0.1 µM
[9] = second compound 3.16 µM, first compound 0.0316 µM
[10] = second compound 3.16 µM, first compound 0.1 µM
[11] = second compound 10 µM, first compound 0.0316 µM
[12] = second compound 10 µM, first compound 0.1 µM
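Also: spheroids exposed to agents for seven days before readout.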

CC(C)NCC(C(=O)N1CCN(c2ncnc3c2C(C)CC3O)CC1)c1ccc(Cl)cc1 (centres undefined) + C#Cc1c(F)ccc2cc(O)cc(-c3ncc4c(N5CC6CCC(C5)N6)nc(OCC56CCCN5CC(F)C6)nc4c3F)c12
5.13: pIC50 (second compound 0.0316 µM)
inactive: viability, T/C [1] 109% | viability, T/C [2] 106% | viability, T/C (second compound 0.0316 µM, first compound 0.316 µM) 106% | viability, T/C (second compound 0.0316 µM, first compound 1 µM) 89.6% | viability, T/C (second compound 0.0316 µM, first compound 3.16 µM) 72.3% | viability, T/C (second compound 0.0316 µM, first compound 10 µM) 42.6% | viability, T/C [3] 113% | viability, T/C [4] 103% | viability, T/C (second compound 0.1 µM, first compound 0.316 µM) 113% | viability, T/C (second compound 0.1 µM, first compound 1 µM) 90.4% | viability, T/C (second compound 0.1 µM, first compound 3.16 µM) 68.7% | viability, T/C (second compound 0.1 µM, first compound 10 µM) 43.1% | viability, T/C [5] 97% | viability, T/C [6] 94.1% | viability, T/C (second compound 0.316 µM, first compound 0.316 µM) 90.9% | viability, T/C (second compound 0.316 µM, first compound 1 µM) 84.7% | viability, T/C (second compound 0.316 µM, first compound 3.16 µM) 64.4% | viability, T/C (second compound 0.316 µM, first compound 10 µM) 45.3% | viability, T/C [7] 74.4% | viability, T/C [8] 62% | viability, T/C (second compound 1 µM, first compound 0.316 µM) 56.2% | viability, T/C (second compound 1 µM, first compound 1 µM) 65.1% | viability, T/C (second compound 1 µM, first compound 3.16 µM) 54.8% | viability, T/C (second compound 1 µM, first compound 10 µM) 39.3% | viability, T/C [9] 35.2% | viability, T/C [10] 38.2% | viability, T/C (second compound 3.16 µM, first compound 0.316 µM) 26.3% | viability, T/C (second compound 3.16 µM, first compound 1 µM) 25.8% | viability, T/C (second compound 3.16 µM, first compound 3.16 µM) 38.4% | viability, T/C (second compound 3.16 µM, first compound 10 µM) 25.6% | viability, T/C [11] 18.7% | viability, T/C [12] 15.8% | viability, T/C (second compound 10 µM, first compound 0.316 µM) 16.4% | viability, T/C (second compound 10 µM, first compound 1 µM) 24.7% | viability, T/C (second compound 10 µM, first compound 3.16 µM) 16.9% | viability, T/C (second compound 10 µM, first compound 10 µM) 5.88%
5.12: pIC50 (second compound 0.316 µM)
> 7.50: pIC50 (second compound 3.16 µM) | pIC50 (second compound 10 µM)
5.14: pIC50 (second compound 0.1 µM)
5.37: pIC50 (second compound 1 µM)

CC(C)n1nc(-c2ccc3oc(N)nc3c2)c2c(N)ncnc21 + C#Cc1c(F)ccc2cc(O)cc(-c3ncc4c(N5CC6CCC(C5)N6)nc(OCC56CCCN5CC(F)C6)nc4c3F)c12
7.23: pIC50 (second compound 1 µM)
7.31: pIC50 (second compound 0.1 µM)
7.24: pIC50 (second compound 0.316 µM)
7.30: pIC50 (second compound 0.0316 µM)
> 9.50: pIC50 (second compound 3.16 µM) | pIC50 (second compound 10 µM)
inactive: viability, T/C (second compound 0.0316 µM, first compound 0.000316 µM) 96.9% | viability, T/C (second compound 0.0316 µM, first compound 0.001 µM) 105% | viability, T/C (second compound 0.0316 µM, first compound 0.00316 µM) 105% | viability, T/C (second compound 0.0316 µM, first compound 0.01 µM) 89.2% | viability, T/C [1] 63.5% | viability, T/C [2] 30.3% | viability, T/C (second compound 0.1 µM, first compound 0.000316 µM) 99.6% | viability, T/C (second compound 0.1 µM, first compound 0.001 µM) 120% | viability, T/C (second compound 0.1 µM, first compound 0.00316 µM) 102% | viability, T/C (second compound 0.1 µM, first compound 0.01 µM) 96.5% | viability, T/C [3] 62.4% | viability, T/C [4] 29.3% | viability, T/C (second compound 0.316 µM, first compound 0.000316 µM) 95.2% | viability, T/C (second compound 0.316 µM, first compound 0.001 µM) 94.7% | viability, T/C (second compound 0.316 µM, first compound 0.00316 µM) 92.3% | viability, T/C (second compound 0.316 µM, first compound 0.01 µM) 96.5% | viability, T/C [5] 67.5% | viability, T/C [6] 33.4% | viability, T/C (second compound 1 µM, first compound 0.000316 µM) 68.8% | viability, T/C (second compound 1 µM, first compound 0.001 µM) 70.6% | viability, T/C (second compound 1 µM, first compound 0.00316 µM) 68.1% | viability, T/C (second compound 1 µM, first compound 0.01 µM) 83% | viability, T/C [7] 70% | viability, T/C [8] 32.4% | viability, T/C (second compound 3.16 µM, first compound 0.000316 µM) 35.4% | viability, T/C (second compound 3.16 µM, first compound 0.001 µM) 40.3% | viability, T/C (second compound 3.16 µM, first compound 0.00316 µM) 38.2% | viability, T/C (second compound 3.16 µM, first compound 0.01 µM) 44.5% | viability, T/C [9] 52.3% | viability, T/C [10] 28.5% | viability, T/C (second compound 10 µM, first compound 0.000316 µM) 15.9% | viability, T/C (second compound 10 µM, first compound 0.001 µM) 17.6% | viability, T/C (second compound 10 µM, first compound 0.00316 µM) 15.1% | viability, T/C (second compound 10 µM, first compound 0.01 µM) 19.3% | viability, T/C [11] 19.5% | viability, T/C [12] 8.39%
